Data reported in patent publication US7642367B2, “Diamino-functional chalcones” (Lica Pharmaceuticals A/S, priority 2002, dated 2010).
In brackets after ≈: the same amount, converted by molar mass.

How the values were obtained:
[1] = tested on: Streptococcus pneumoniae #998 (clinical isolate); test: MIC determination in broth microdilution assay; conditions: F: Streptococcus pneumoniae #998; NA: no activity
[2] = Determination of metabolic stability (liver microsomes); type: in vitro ADME, Wistar rat; conditions: for Metabolic turn-over in vitro: rat liver microsomes, 20 μM, 15 min at 37° C.
Experimental: incubations were performed with Wistar rat liver microsomes (0.25 mg/ml) in 2% sodium bicarbonate solution. NADP (0.13 mg/ml), glucose-6-phosphate (0.63 mg/ml) and glucose-6-phosophate dehydrogenase (0.38 units/ml) were used as NADPH generation system and UDPGA (0.48 mg/ml) was added to include the phase II reaction, glucuronic acid conjugation, in the assay. After 5 minutes of pre-incubation the reaction was started by addition of the test article to give a final concentration of 20 μM. Samples were incubated for 15 min at 37° C. and the reactions were terminated by addition of equal volumes of acetonitrile. Blank incubations were performed at the same concentration but without addition of microsomes. Both blank and microsome-containing samples were made in replicats of three. Prior to analysis samples were centrifuged for 10 min. at 3500 rpm, HPLC system:
Initial conditions were 40% mobile phase A (acetonitrile) and 60% mobile phase B (10 mM ammonium acetate pH 9.5). During the first 20 minutes, the mobile phase was changed via a linear gradient to 90% A and 10% B. This was followed by a 5 minutes linear gradient to initial conditions, which were maintained for 5 min. The flow rate was 0.20 ml/min and injection volume 10 μl.

[3] = tested on: dihydroorotate dehydrogenase (DHODH); test: DHODH assay; type: biochemical; conditions: test concentration not given
Experimental: 100 μl chalcone or 0.1 M Tris-HCl pH 8.0 is added to a well in a 96-wells microtiter plate. Then 50 μl enzyme dilution is added. The microtiter plate is placed in the Powerwavex340 and the enzymatic reactions starts when adding 100 μl assay mixture. The reaction are measured every 20 sec. for 10 min. The samples with chalcones are compared with the samples with 0.1 M Tris-HCl pH 8.0 and the percent inhibition is calculated.
Enzyme dilution: The solution of recombinant purified enzyme is dissolved in 0.1 M Tris-HCl pH 8 to give an initial velocity of 0.04-0.05 ΔA/min.
2,6-dichlorophenolindophenol (DCIP)-stock solution: 40 mg DCIP and 10 ml 99% Ethanol are mixed for 10 min at RT. Then 100 μl 1.0 M Tris-HCl pH 8 and milliQ H20 are added to a final volume of 100 ml. The A600 of the DCIP-stock solution are measured in a microtiter plate on the Powerwavex340 (Bio-Tek instruments, Inc.)
[…]-stock solution: 25 mM dihydroorotate stock-solution is prepared by first dissolving in the same amount of mol NaOH and then miliQ H20 is added to the final volume.
Assay mix (10 ml solution): 600 μl of DHODH-stock solution and X ml (depending on the A600 value of stock-solution) DCIP to a final A600=2.5 are mixed. Then 0.1 M Tris-HCl pH 8.0 are added to a final volume of 10 ml.
Preparation of compound solution: A 10 mM stock-solution of compound (e.g. a chalcone derivative) is made in dimethylsulfoxid (DMSO). The compound is then diluted in 0.1 M Tris-HCl pH 8 to the test concentrations. The final DMSO concentration in the sample is 10%

non-fastidious bacteria = test: Activity against non-fastidious bacteria (panel); conditions: for activity against Gram-positive non-fastidious bacteria: pathogenic Gram-positive bacteria
Eschericia coli ESS = test: MIC determination in broth microdilution assay; conditions: for MIC: H: Eschericia coli ESS, NA: no activity
L. major promastigotes = test: Leishmania promastigote assay (3H-thymidine); conditions: L. major
[4] = tested on: Plasmodium falciparum 3D7; test: Plasmodium falciparum assay (3H-phenylalanine labelling); type: cell-based; conditions: for IC50: Plasmodium falciparum 3D7 (Table 2), read-out: IC50
S. aureus ATCC29213 = test: Killing curve (time-kill) / broth macrodilution MIC; type: cell-based, Staphylococcus aureus; conditions: for bactericidal or bacteriostatic (time-kill curve): S. aureus ATCC29213, concentrations above the MIC
[5] = tested on: Staphylococcus aureus ATCC33591 (resistant to methicillin); test: MIC determination in broth microdilution assay; conditions: B: Staphylococcus aureus ATCC33591 (resistant to methicillin); NA: no activity
[6] = tested on: Enterococcus faecium #17501 (vancomycin-resistant clinical isolate); test: MIC determination in broth microdilution assay; conditions: E: Enterococcus faecium #17501 (vancomycin-resistant); NA: no activity
[7] = tested on: Staphylococcus aureus ATCC29213; test: MIC determination in broth microdilution assay; conditions: A: Staphylococcus aureus ATCC29213; NA: no activity
[8] = tested on: Staphylococcus intermedius #2357 (clinical isolate); test: MIC determination in broth microdilution assay; conditions: C: Staphylococcus intermedius #2357; NA: no activity
[9] = tested on: Enterococcus faecalis ATCC29212; test: MIC determination in broth microdilution assay; conditions: D: Enterococcus faecalis ATCC29212; NA: no activity
[10] = tested on: Eschericia coli ATCC25922; test: MIC determination in broth microdilution assay; conditions: for MIC: G: Eschericia coli ATCC25922, NA: no activity
[11] = tested on: Bacteroides fragilis, Clostridium perfringens, Clostridium difficele; type: cell-based; conditions: single concentration of compound (100 μM)

C=CC(C)(C)c1cc(/C=C/C(=O)c2ccc(O)cc2)c(OC)cc1O [LicA, Licochalcone A]
MIC [1]: 75.0 µM (≈ 25.4 µg/mL) | turn-over in vitro [2]: 100% | Metabolic turn-over in vitro [2]: 100% | Inhibition of DHODH [3]: 25% | activity against Gram-positive non-fastidious bacteria (non-fastidious bacteria): moderate bactericidal activity | activity against Escherichia coli (non-fastidious bacteria; prototype pathogenic Gram-negative bacterium): only modest or no activity | MIC (Eschericia coli ESS): 300.0 µM (≈ 102 µg/mL)

COc1ccc(C(=O)/C=C/c2ccccc2N(C)CCN(C)C)c(F)c1 [B058, (E)-3-{2-[(2-Dimethylamino-ethyl)-methyl-amino]-phenyl}-1-(2-fluoro-4-methoxy-phenyl)-propenone]
Inhibition of DHODH [3]: 17%

Cc1ccccc1-c1ccc(N2CCN(C)CC2)c(/C=C/C(=O)c2ccc(O)c(CN(C)C)c2)c1 [B208, (E)-1-(3-Dimethylaminomethyl-4-hydroxy-phenyl)-3-[2′-methyl-4-(4-methyl-piperazin-1-yl)-biphenyl-3-yl]-propenone]
IC50 (L. major promastigotes): 1100 nM | IC50 [4]: 400 nM

CN(C)CCN(C)c1cccc(C(=O)/C=C/c2cc(F)ccc2F)c1 [B017, (E)-3-(2,5-Difluoro-phenyl)-1-{3-[(2-dimethylamino-ethyl)-methyl-amino]-phenyl}-propenone]
Inhibition of DHODH [3]: 23%

COc1ccc(C(=O)/C=C/c2cc(-c3ccccc3OC)ccc2N2CCCN(C)CC2)c(F)c1 [B143, (E)-1-(2-Fluoro-4-methoxy-phenyl)-3-[2′-methoxy-4-(4-methyl-[1,4]diazepan-1-yl)-biphenyl-3-yl]-propenone]
MIC (time-kill curve figure) (S. aureus ATCC29213; S. aureus ATCC29213): 9.4 µM (≈ 4.46 µg/mL) | bactericidal or bacteriostatic (time-kill curve) (S. aureus ATCC29213): bactericidal

Cc1cc(C)cc(-c2ccc(N3CCN(C)CC3)c(/C=C/C(=O)c3ccccc3N)c2)c1 [B115, (E)-1-(2-Amino-phenyl)-3-[3′,5′-dimethyl-4-(4-methyl-piperazin-1-yl)-biphenyl-3-yl]-propenone]
MIC [1]: 9.4 µM (≈ 4 µg/mL) | MIC [5]: 4.7 µM (≈ 2 µg/mL) | Metabolic turn-over in vitro [2]: 0% | MIC [6]: 4.7 µM (≈ 2 µg/mL) | activity against Gram-positive non-fastidious bacteria (non-fastidious bacteria): increased potency | MIC [7]: 4.7 µM (≈ 2 µg/mL) | MIC (Eschericia coli ESS): 9.4 µM (≈ 4 µg/mL) | MIC [8]: 4.7 µM (≈ 2 µg/mL) | MIC [9]: 4.7 µM (≈ 2 µg/mL)

COc1ccc(C(=O)/C=C/c2cc(-c3cc(C)cc(C)c3)ccc2N2CCN(C)CC2)c(CN(C)C)c1 [B102, (E)-1-(2-Dimethylaminomethyl-4-methoxy-phenyl)-3-[3′,5′-dimethyl-4-(4-methyl-piperazin-1-yl)-biphenyl-3-yl]-propenone]
MIC [10]: 37.5 µM (≈ 18.7 µg/mL) | MIC [1]: 4.7 µM (≈ 2.34 µg/mL) | MIC [5]: 9.4 µM (≈ 4.68 µg/mL) | MIC [6]: 9.4 µM (≈ 4.68 µg/mL) | activity against Gram-positive non-fastidious bacteria (non-fastidious bacteria): increased potency | MIC [7]: 4.7 µM (≈ 2.34 µg/mL) | MIC (Eschericia coli ESS): 4.7 µM (≈ 2.34 µg/mL) | MIC [8]: 18.8 µM (≈ 9.36 µg/mL) | MIC [9]: 9.4 µM (≈ 4.68 µg/mL)

CN(C)CCN(C)c1cccc(C(=O)/C=C/c2ccc(Cl)cc2Cl)c1 [B015, (E)-3-(2,4-Dichloro-phenyl)-1-{3-[(2-dimethylamino-ethyl)-methyl-amino]-phenyl}-propenone]
Inhibition of DHODH [3]: 25%

Cc1ccccc1-c1ccc(N2CCN(C)CC2)c(/C=C/C(=O)c2cccc(NC(=O)CN(C)C)c2)c1 [B211, 2-Dimethylamino-N-(3-{3-[2′-methyl-4-(4-methyl-piperazin-1-yl)-biphenyl-3-yl]-(E)-acryloyl}-phenyl)-acetamide]
IC50 [4]: 700 nM

Cc1ccccc1-c1ccc(N(C)CCCN(C)C)c(/C=C/C(=O)c2ccccc2CN(C)C)c1 [B147, (E)-1-(2-Dimethylaminomethyl-phenyl)-3-{4-[(3-dimethylamino-propyl)-methyl-amino]-2′-methyl-biphenyl-3-yl}-propenone]
IC50 [4]: 600 nM

COc1ccc(C(=O)/C=C/c2ccccc2)cc1 [4′MC, 4′methoxy chalcone, reference compound]
Inhibition of DHODH [3]: 7% | activity against Gram-positive non-fastidious bacteria (non-fastidious bacteria): no antibacterial effect at all

CN(C)CCN(C)c1cc(Br)cc(/C=C/C(=O)c2ccccc2CN(C)C)c1 [B118, (E)-3-{3-Bromo-5-[(2-dimethylamino-ethyl)-methyl-amino]-phenyl}-1-(2-dimethylaminomethyl-phenyl)-propenone]
times more potent than LicA ([4]; Plasmodium falciparum, dose-response curve FIG. 6): 40

COc1ccc(C(=O)/C=C/c2cc(-c3cc(C)cc(C)c3)ccc2N2CCNCC2)c(CN(C)C)c1 [B117, (E)-1-(2-Dimethylaminomethyl-4-methoxy-phenyl)-3-(3′,5′-dimethyl-4-piperazin-1-yl-biphenyl-3-yl)-propenone]
MIC [10]: 18.8 µM (≈ 9.09 µg/mL) | MIC [5]: 4.7 µM (≈ 2.27 µg/mL) | MIC [6]: 4.7 µM (≈ 2.27 µg/mL) | MIC [7]: 4.7 µM (≈ 2.27 µg/mL) | MIC (Eschericia coli ESS): 4.7 µM (≈ 2.27 µg/mL) | MIC [8]: 9.4 µM (≈ 4.55 µg/mL) | MIC [9]: 4.7 µM (≈ 2.27 µg/mL)

CCCCN(CCCC)c1cccc(/C=C/C(=O)c2ccccc2NCCN(C)C)c1 [B041, (E)-3-(3-Dibutylamino-phenyl)-1-[2-(2-dimethylamino-ethylamino)-phenyl]-propenone]
MIC [1]: 18.8 µM (≈ 7.93 µg/mL) | activity against anaerobic bacteria [11]: activity against all microorganisms within the test panel | MIC [5]: 4.7 µM (≈ 1.98 µg/mL) | MIC (time-kill curve figure) (S. aureus ATCC29213; S. aureus ATCC29213): 9.4 µM (≈ 3.96 µg/mL) | dependence of the bactericidal action (S. aureus ATCC29213; S. aureus ATCC29213): primarily dependent on incubation time | bactericidal or bacteriostatic (time-kill curve) (S. aureus ATCC29213): bactericidal | MIC [6]: 9.4 µM (≈ 3.96 µg/mL) | MIC [7]: 4.7 µM (≈ 1.98 µg/mL) | MIC (Eschericia coli ESS): 300.0 µM (≈ 126 µg/mL) | MIC [8]: 9.4 µM (≈ 3.96 µg/mL) | MIC [9]: 9.4 µM (≈ 3.96 µg/mL)

Cc1cc(C)cc(-c2ccc(N3CCNCC3)c(/C=C/C(=O)c3cccc(NCCN(C)C)c3)c2)c1 [B116, (E)-1-[3-(2-Dimethylamino-ethylamino)-phenyl]-3-(3′,5′-dimethyl-4-piperazin-1-yl-biphenyl-3-yl)-propenone]
activity against E. coli ATCC25922 [10]: high activity | MIC [10]: 4.7 µM (≈ 2.27 µg/mL) | MIC [1]: 4.7 µM (≈ 2.27 µg/mL) | MIC [5]: 4.7 µM (≈ 2.27 µg/mL) | MIC [6]: 4.7 µM (≈ 2.27 µg/mL) | MIC [7]: 2.4 µM (≈ 1.16 µg/mL) | activity against ESS strain of E. coli (Eschericia coli ESS): high activity | MIC (Eschericia coli ESS): 4.7 µM (≈ 2.27 µg/mL) | MIC [8]: 4.7 µM (≈ 2.27 µg/mL) | MIC [9]: 4.7 µM (≈ 2.27 µg/mL)

CN(C)CCN(C)c1cccc(C(=O)/C=C/c2ccc(Br)cc2F)c1 [B018, (E)-3-(4-Bromo-2-fluoro-phenyl)-1-{3-[(2-dimethylamino-ethyl)-methyl-amino]-phenyl}-propenone]
Inhibition of DHODH [3]: 22%
